The text below walks through data of patent US9854801B2, “Weed control from applications of an ethylene inhibitor and a pyridine carboxylic acid herbicide” (Dow AgroSciences LLC, priority 2015, dated 2018).

Where “and” joins values, the source holds several entries; their conditions need not be identical. Equal entries are not always repeated.

Format in all cases: in vivo
Holding throughout (conditions): 20-21 days after application

Assay [1] deals with yellow nutsedge, Cyperus esculentus L. (CYPES). In words: Foliar-applied greenhouse weed control, yellow nutsedge (CYPES). The protocol:
(§1) The soil matrix was contained in plastic pots with a volume of 1 quart and a surface area of 83.6 cm^2. When required, to ensure good germination and healthy plants, a fungicide treatment and/or other chemical or physical treatment was applied. The plants were grown for 10-22 days in a greenhouse with an approximate 14 h photoperiod which was maintained at about 29° C. during the day and 26° C. during the night. Nutrients (Peters Excel® 15-5-15 5-Ca 2-Mg and iron chelate) were applied in the irrigation solution as needed and water was added on a regular basis. Supplemental lighting was provided with overhead metal halide 1000-Watt lamps as necessary. The plants were employed for testing when they reached the second or third true leaf stage. […] The compounds were applied on an active ingredient basis. […] All stock solutions and applications solutions were visually inspected for compound compatibility prior to application. […] Control plants were sprayed in the same manner with the solvent blank. The treated plants and control plants were placed in a greenhouse as described above and watered by sub-irrigation to prevent wash-off of the test compounds. […] Colby's equation was used to determine the herbicidal effects expected from the mixtures. The combinations tested, ratios employed, plant species tested, and results are included in Table 1 below.

In assay [2] the test system is large crabgrass, Digitaria sanguinalis (L.) Scop. (DIGSA). In words: Foliar-applied greenhouse weed control, large crabgrass (DIGSA). As to the method: as §1
Assay [3] deals with barnyard grass, Echinochloa crus-galli (L.) P. Beauv. (ECHCG). In words: Foliar-applied greenhouse weed control, barnyard grass (ECHCG). As to the method: as §1
Assay [4] has as its system junglerice, Echinochloa colonum (L.) LINK (ECHCO). In words: Foliar-applied greenhouse weed control, junglerice (ECHCO). As to the method: as §1
For assay [5], the system named is ivyleaf morning glory, Ipomoea hederacea (L.) Jacq. (IPOHE). In words: Foliar-applied greenhouse weed control, ivyleaf morning glory (IPOHE). As to the method:
as §1

As to `CC1=CC1` [1-methylcyclopropene, reference compound], the “1-methylcyclopropene % Visual Weed Control” value in assay [1] (5 g ai/ha alone), in assay [2] (2 g ai/ha alone), in assay [2] (4 g ai/ha alone), in assay [2] (5 g ai/ha alone), in assay [2] (10 g ai/ha alone) and in assay [2] (20 g ai/ha alone) was 0% in each case. Also, the “1-methylcyclopropene % Visual Weed Control” value in assay [3] (2 g ai/ha alone), in assay [3] (4 g ai/ha alone), in assay [3] (5 g ai/ha alone), in assay [3] (10 g ai/ha alone), in assay [3] (20 g ai/ha alone) and in assay [4] (2 g ai/ha alone) was 0% each time. Also, the “1-methylcyclopropene % Visual Weed Control” value in assay [4] (4 g ai/ha alone), in assay [5] (2 g ai/ha alone), in assay [5] (4 g ai/ha alone), in assay [5] (5 g ai/ha alone) and in assay [5] (10 g ai/ha alone) was 0% in each case.
Consider `COc1c(Cl)ccc(-c2nc(C(=O)OCc3ccccc3)c(Cl)c(N)c2F)c1F` [Formula (II) benzyl ester, benzyl ester of 4-amino-3-chloro-5-fluoro-6-(4-chloro-2-fluoro-3-methoxy-phenyl) pyridine-2-carboxylic acid], for which the “Formula (II) benzyl ester % Visual Weed Control” value in assay [1] (8 g ai/ha alone) was 70%; in assay [1] (16 g ai/ha alone), 88%; in assay [1] (32 g ai/ha alone), 73%; in assay [2] (8 g ai/ha alone), 13% and 20%; in assay [2] (16 g ai/ha alone), 23% and 28%; in assay [2] (32 g ai/ha alone), 30% and 33%. The “Formula (II) benzyl ester % Visual Weed Control” value in assay [3] (8 g ai/ha alone) was 40% and 63%; in assay [3] (16 g ai/ha alone), 63% and 78%; in assay [3] (32 g ai/ha alone) it was 83% and 90%; in assay [4] (8 g ai/ha alone), 50%; in assay [4] (16 g ai/ha alone) it was 50%; in assay [4] (32 g ai/ha alone), 80%. Further, the “Formula (II) benzyl ester % Visual Weed Control” value in assay [5] (16 g ai/ha alone) was 18% and 25%; in assay [5] (32 g ai/ha alone), 35% and 48%.
